Experimental data taken from ChEMBL document CHEMBL6092131, “Synthesis, SAR, and application of JQ1 analogs as PROTACs for cancer therapy” (Bioorg Med Chem, 2024).

Experiments:
BT-549 = assay: Antiproliferative activity against human BT-549 cells assessed as reduction in cell viability; format: functional, cell-based
cells = details: Homo sapiens, Triple-negative breast cancer cell
Description: Antiproliferative activity against human Triple-negative breast cancer cell

[1] = target: Protein cereblon/CREB-binding protein (Homo sapiens, UniProt Q92793+Q96SW2); assay: PROTAC activity at CBP/CRBN in human VCaP cells assessed as protein degradation incubated for 24 hrs by Western blot analysis; format: cell-based
Protein cereblon/CREB-binding protein, sequence (Q92793 whole entry): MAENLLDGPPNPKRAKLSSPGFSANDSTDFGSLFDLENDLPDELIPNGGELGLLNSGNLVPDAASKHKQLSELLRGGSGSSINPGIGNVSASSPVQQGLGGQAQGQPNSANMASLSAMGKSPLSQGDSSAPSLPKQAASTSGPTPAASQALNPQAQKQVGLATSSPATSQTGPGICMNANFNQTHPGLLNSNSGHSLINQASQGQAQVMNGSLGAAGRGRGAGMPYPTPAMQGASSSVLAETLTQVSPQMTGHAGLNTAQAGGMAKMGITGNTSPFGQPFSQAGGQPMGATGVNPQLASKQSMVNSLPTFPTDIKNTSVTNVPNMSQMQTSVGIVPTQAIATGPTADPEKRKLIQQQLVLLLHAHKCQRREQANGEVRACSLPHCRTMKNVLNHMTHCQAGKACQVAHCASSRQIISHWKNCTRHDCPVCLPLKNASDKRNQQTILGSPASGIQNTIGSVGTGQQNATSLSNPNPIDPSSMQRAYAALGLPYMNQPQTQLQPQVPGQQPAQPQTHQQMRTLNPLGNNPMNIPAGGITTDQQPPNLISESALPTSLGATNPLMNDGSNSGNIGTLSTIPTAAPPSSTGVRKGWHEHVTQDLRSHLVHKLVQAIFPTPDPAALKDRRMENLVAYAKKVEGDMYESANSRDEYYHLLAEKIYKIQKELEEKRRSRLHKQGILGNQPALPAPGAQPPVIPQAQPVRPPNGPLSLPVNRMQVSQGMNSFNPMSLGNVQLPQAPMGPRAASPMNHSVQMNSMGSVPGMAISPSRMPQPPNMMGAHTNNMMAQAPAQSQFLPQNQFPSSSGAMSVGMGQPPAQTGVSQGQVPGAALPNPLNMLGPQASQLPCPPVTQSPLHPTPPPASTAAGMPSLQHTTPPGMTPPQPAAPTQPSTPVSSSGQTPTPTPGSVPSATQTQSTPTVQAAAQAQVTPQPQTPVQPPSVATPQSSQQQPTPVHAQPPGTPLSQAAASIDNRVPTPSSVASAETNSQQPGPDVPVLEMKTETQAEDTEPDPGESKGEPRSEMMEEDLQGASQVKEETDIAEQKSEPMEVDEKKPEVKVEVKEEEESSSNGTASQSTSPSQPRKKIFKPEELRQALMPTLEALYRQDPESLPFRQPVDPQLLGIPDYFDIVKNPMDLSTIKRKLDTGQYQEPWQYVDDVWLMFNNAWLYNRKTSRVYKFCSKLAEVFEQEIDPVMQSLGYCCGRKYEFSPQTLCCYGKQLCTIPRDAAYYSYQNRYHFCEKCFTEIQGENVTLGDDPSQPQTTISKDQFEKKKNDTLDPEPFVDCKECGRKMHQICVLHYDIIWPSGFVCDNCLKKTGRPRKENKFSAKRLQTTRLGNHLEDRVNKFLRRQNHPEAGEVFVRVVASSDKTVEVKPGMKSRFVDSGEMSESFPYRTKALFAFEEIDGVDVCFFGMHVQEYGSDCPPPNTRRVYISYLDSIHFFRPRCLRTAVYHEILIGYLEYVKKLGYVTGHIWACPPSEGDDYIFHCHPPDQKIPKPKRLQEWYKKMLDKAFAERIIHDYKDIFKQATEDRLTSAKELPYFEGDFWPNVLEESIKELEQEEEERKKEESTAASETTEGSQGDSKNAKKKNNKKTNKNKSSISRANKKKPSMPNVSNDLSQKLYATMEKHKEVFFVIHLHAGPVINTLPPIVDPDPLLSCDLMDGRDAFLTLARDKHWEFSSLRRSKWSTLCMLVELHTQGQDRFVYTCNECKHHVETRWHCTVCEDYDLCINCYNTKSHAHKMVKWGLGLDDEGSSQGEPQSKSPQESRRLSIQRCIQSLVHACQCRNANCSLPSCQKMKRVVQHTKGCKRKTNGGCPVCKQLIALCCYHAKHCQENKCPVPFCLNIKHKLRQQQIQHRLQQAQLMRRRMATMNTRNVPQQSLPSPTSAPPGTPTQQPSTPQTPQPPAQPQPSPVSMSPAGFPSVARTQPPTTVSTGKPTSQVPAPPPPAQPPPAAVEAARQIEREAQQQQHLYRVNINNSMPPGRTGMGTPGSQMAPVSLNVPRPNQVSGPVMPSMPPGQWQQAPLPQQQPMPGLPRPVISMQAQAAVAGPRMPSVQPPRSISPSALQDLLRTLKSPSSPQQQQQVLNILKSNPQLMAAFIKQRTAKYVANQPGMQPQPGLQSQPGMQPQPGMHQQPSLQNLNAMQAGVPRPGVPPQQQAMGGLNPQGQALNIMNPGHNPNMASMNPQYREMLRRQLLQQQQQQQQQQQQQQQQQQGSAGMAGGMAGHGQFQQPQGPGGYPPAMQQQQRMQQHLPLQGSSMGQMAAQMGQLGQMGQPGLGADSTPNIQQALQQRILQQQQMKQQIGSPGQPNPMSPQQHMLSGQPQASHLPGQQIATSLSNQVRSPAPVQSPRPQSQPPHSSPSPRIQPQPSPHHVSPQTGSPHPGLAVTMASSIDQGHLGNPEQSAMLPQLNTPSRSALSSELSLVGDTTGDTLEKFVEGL
Protein cereblon/CREB-binding protein, sequence (Q96SW2 whole entry): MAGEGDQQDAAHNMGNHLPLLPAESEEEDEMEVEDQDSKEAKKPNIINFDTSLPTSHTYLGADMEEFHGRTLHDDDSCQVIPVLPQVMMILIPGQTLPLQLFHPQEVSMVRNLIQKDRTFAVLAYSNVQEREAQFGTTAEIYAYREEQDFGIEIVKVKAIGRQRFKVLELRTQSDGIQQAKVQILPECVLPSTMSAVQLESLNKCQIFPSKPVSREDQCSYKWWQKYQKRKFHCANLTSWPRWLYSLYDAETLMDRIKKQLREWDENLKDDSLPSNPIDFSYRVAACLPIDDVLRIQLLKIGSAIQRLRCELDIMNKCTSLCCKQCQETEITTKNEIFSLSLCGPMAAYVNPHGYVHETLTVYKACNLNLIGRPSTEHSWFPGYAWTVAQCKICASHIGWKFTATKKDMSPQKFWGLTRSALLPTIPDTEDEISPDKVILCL

[2] = target: Bromodomain-containing protein 4 (Homo sapiens, UniProt O60885); assay: Binding affinity to BRD4 BD2 (unknown origin) assessed as dissociation constant by SPR assay
[3] = Cytotoxicity against human HAP1 cells assessed as reduction in cell viability measured for 24 hrs by SRB assay; format: functional, cell-based; details: HAP1, 24 h
MDA-MB-231 = assay: Antiproliferative activity against human MDA-MB-231 cells assessed as reduction in cell viability incubated for 72 hrs by MTT assay; format: functional, cell-based; details: MDA-MB-231, 72 h
[4] = target: von Hippel-Lindau disease tumor suppressor/Bromodomain-containing protein 4 (Homo sapiens, UniProt O60885+P40337); assay: PROTAC activity at VHL/BRD4 in human HeLa cells assessed as protein degradation of BRD4 incubated for 24 hrs by Western blot analysis; format: cell-based
von Hippel-Lindau disease tumor suppressor/Bromodomain-containing protein 4, sequence (P40337 whole entry, looked up, other chains not shown): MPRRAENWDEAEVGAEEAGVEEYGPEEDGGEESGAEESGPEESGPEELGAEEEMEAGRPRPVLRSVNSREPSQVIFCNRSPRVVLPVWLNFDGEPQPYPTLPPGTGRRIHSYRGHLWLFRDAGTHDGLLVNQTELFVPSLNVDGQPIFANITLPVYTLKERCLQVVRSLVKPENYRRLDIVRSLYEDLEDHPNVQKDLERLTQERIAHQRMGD

MV4-11 = assay: Cytotoxicity against human MV4-11 cells assessed as reduction in cell viability incubated for 72 hrs by cell titer glo assay; format: functional, cell-based; details: MV4-11, 72 h
[5] = target: T1, Protein cereblon/Bromodomain-containing protein 4 (Homo sapiens, UniProt O60885+Q96SW2); assay: PROTAC activity at CRBN/BRD4 in human NAMALVA cells assessed as protein degradation incubated for 6 hrs by Western blot analysis; format: cell-based
T1 sequence (Q96SW2 whole entry, looked up, other chains not shown): as the sequence (Q96SW2 whole entry) above

[6] = target: T1, Protein cereblon/Bromodomain-containing protein 4; assay: PROTAC activity at CRBN/BRD4 in human CA46 cells assessed as protein degradation incubated for 6 hrs by Western blot analysis; format: cell-based
LNCaP = assay: Antiproliferative activity against human LNCaP cells assessed as inhibition of cell viability incubated for 48 hrs by CellTiter-Glo assay; format: functional, cell-based

`Cc1sc2c(c1C)C(c1ccc(Cl)cc1)=N[C@@H](CC(=O)OC(C)(C)C)c1nnc(C)n1-2` showed an IC50 (BT-549) of 5.2 µM and an IC50 (cells) of 9.9 µM.

`Cc1ncsc1-c1ccc([C@H](C)NC(=O)[C@@H]2C[C@@H](O)CN2C(=O)[C@@H](NC(=O)COCCCOCCNC(=O)C[C@@H]2N=C(c3ccc(Cl)cc3)c3c(sc(C)c3C)-n3c(C)nnc32)C(C)(C)C)cc1` showed a DC50 [1] of 5 nM.

`CC(=O)N[C@H](C(=O)N1C[C@H](O)C[C@H]1C(=O)NCc1ccc(-c2scnc2C)cc1)C(C)(C)SCCCCCCNC(=O)C[C@@H]1N=C(c2ccc(Cl)cc2)c2c(sc(C)c2C)-n2c(C)nnc21` showed a Kd [2] of 4.4 nM.

In the case of `Cc1sc2c(c1C)C(c1ccc(Cl)cc1)=N[C@@H](CC(=O)NCCCCOc1ccc(C3CC(c4ccc(Br)cc4)=NN3C(=O)CCl)cc1)c1nnc(C)n1-2` (stereo partly specified), the IC50 [3] is reported as 470 nM.

`Cc1sc2c(c1C)C(c1ccc(Cl)cc1)=N[C@@H](CC(=O)NCCCCOc1ccc(Oc3ccc(N(Cc4ccccc4)C(=O)CCl)cc3)cc1)c1nnc(C)n1-2` showed an IC50 (MDA-MB-231) of 540 nM.

Compound `Cc1ncsc1-c1ccc2c(c1)OCCOCCOC[C@@H](NC(=O)C[C@@H]1N=C(c3ccc(Cl)cc3)c3c(sc(C)c3C)-n3c(C)nnc31)COCCOCCOCC(=O)N[C@@H](C(C)(C)C)C(=O)N1C[C@H](O)C[C@H]1C(=O)NC2` has a DC50 [4] of 640 nM and an IC50 (MV4-11) of 300 nM.

`Cc1sc2c(c1C)C(c1ccc(Cl)cc1)=N[C@@H](CC(=O)Nc1ccc(OCCOCCOCCOCCCc3cccc4c3C(=O)N(C3CCC(=O)NC3=O)C4=O)cc1)c1nnc(C)n1-2` (stereo partly specified) gave a DC50 [5] of less than 1 nM and a DC50 [6] of less than 1 nM.

With `CN[C@@H](C)C(=O)N[C@H](C(=O)N1CCC[C@H]1c1nc(C(=O)c2cccc(OCCOCCOCCOCCNC(=O)C[C@@H]3N=C(c4ccc(Cl)cc4)c4c(sc(C)c4C)-n4c(C)nnc43)c2)cs1)C1CCCCC1` the IC50 (LNCaP) was 77 nM.
